These results are taken from patent publication US20220324835A1 (Nurix Therapeutics, Inc., priority 2018, published 2022).

Structures are written as SMILES. Some results are limits rather than exact numbers.

Test [1] deals with T-cell. Briefly: IL-2 secretion from T-cells co-stimulated with anti-CD3 and anti-CD28 antibody (Biological Example 2). The test is classed as cell-based, human. To be noted: Homo sapiens, T-cell, primary human total T-cells, baseline = anti-CD3/anti-CD28 stimulated cells without inhibitor, read-out: IL-2 secretion, Anti-CD3/Anti-CD28 stimulation, fold change over baseline; for fold induction at 0.3 µM: 0.3 μM compound; for fold induction at 1 µM: 1 μM compound; for fold induction at 4 µM: 4 μM compound. The procedure, abridged:
(§1)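 T-cells were stimulated with anti-CD3 antibody alone or with anti-CD28 antibody, in the presence or absence of Cbl-b inhibitor. IL-2 secretion or CD25 surface staining was measured, and values expressed as fold over the uninhibited baseline […].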

In test [2] the target is T1, Cbl-b (Homo sapiens, UniProt Q13191). Briefly: Cbl-b inhibition assay (Cbl-b activity assay, FRET, Biological Example 1; 100 mM NaCl, 60 nM Src kinase). The test is classed as biochemical. The conditions noted are these: upper bound stated in text lists; read-out: IC50 values in the Cbl-b inhibition assay of Biological Example 1. The gist of the method:
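FRET read-out: loss of signal marks inhibition. Mix = biotin-Avi-Cbl-b (N-term), Src kinase, UbcH5B-Ub(Bodipy-FL, irreversible conjugate), streptavidin-Tb, assay buffer.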

For test [3], the system named is T-cell. As to the kind of experiment: IL-2 secretion from T-cells stimulated with anti-CD3 antibody alone (Biological Example 2). To be noted: primary human total T-cells, read-out: IL-2 secretion, Anti-CD3 stimulation, fold change over baseline; for fold induction at 1 µM: 1 μM compound; for fold induction at 8 µM: 8 μM compound. The test is classed as cell-based.

Test [4] deals with T-cell. As to the kind of experiment: CD25 cell surface staining on T-cells stimulated with anti-CD3 antibody alone (Biological Example 2). The class given is cell-based. To be noted: primary human total T-cells, baseline = anti-CD3/anti-CD28 stimulated cells without inhibitor, read-out: CD25 staining, Anti-CD3 stimulation, fold change over baseline; for fold induction at 1 µM: 1 μM compound; for fold induction at 8 µM: 8 μM compound.

Test [5] concerns the target T1, Cbl-b. Briefly: Cbl-b activity assay (Cbl-b inhibition assay), TR-FRET of Cbl-b interaction with UbcH5B-Ub. The test is classed as biochemical. To be noted: assay buffer with 100 mM NaCl, 60 nM Src kinase; read-out: Cbl-b activity IC50. The gist of the method: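 UbcH5B (C85K) conjugated to N-terminally Bodipy-Fluorescein-labeled ubiquitin served as the fluorescent partner. After compound preincubation, Src kinase (60 nM) with 1 mM ATP and 5 mM MgCl2 (final) was added for 1.5 h, followed by a further 1 h incubation. Some values were obtained with 50 mM NaCl and 30 nM Src.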

Test [6] concerns T-cell. As to the kind of experiment: CD25 cell surface staining on T-cells co-stimulated with anti-CD3 and anti-CD28 antibody (Biological Example 2). The test is classed as cell-based, human. To be noted: Homo sapiens, T-cell, primary human total T-cells, baseline = anti-CD3/anti-CD28 stimulated cells without inhibitor, read-out: CD25 staining, Anti-CD3/Anti-CD28 stimulation, fold change over baseline; for fold induction at 0.3 µM: 0.3 μM compound; for fold induction at 1 µM: 1 μM compound; for fold induction at 4 µM: 4 μM compound. The procedure, abridged:
as §1

As usually defined, the IC50 is the concentration that inhibits the measured activity by half.

T1 sequence (Q13191 36-427): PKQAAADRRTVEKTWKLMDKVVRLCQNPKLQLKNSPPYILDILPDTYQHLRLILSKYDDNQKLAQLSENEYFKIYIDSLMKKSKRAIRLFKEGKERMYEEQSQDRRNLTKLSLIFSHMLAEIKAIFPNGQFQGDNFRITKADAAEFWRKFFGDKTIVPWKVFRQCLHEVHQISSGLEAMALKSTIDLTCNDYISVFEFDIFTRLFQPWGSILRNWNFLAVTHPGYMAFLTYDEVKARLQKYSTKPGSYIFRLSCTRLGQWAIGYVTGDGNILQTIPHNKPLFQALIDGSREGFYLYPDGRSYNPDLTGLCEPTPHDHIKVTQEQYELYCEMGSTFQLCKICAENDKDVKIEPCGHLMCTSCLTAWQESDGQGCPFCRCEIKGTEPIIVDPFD

Consider `Cn1cnnc1C[C@]1(c2cccc(N3Cc4c(cc(CN5CCC6(CC6)C5)cc4C(F)(F)F)C3=O)c2)CCOC1` (single isomer, unassigned) [Compound 517b], for which the results for the fold induction at 0.3 µM in the test on T-cell [1] and with T-cell [6] were more than 7.5 and 1.01 to 1.3, respectively. Also, the fold induction at 1 µM with T-cell [1] was more than 7.5; in the test with T-cell [3], more than 0.201; in the test with T-cell [4], more than 1; in the test on T-cell [6], 1.01 to 1.3. In addition, the results for the 50% inhibitory concentration (IC50) on Cbl-b [2] and on Cbl-b [5] were not above 100 nM and less than 100 nM, respectively.

For `Cc1cc(C(=O)Nc2cccc([C@]3(Cc4nncn4C)CCOC3)c2)nc(C2CC2)n1` (single isomer, unassigned) [Compound 534a], the fold induction at 0.3 µM in the test on T-cell [1] was 1.01 to 2.5; in the test with T-cell [6], 1.01 to 1.3. Further, the fold induction at 1 µM in the test with T-cell [1] was 2.51 to 5; with T-cell [3], 0.051 to 0.1; in the test on T-cell [4], 0.601 to 0.8; with T-cell [6], 1.01 to 1.3. The IC50 at Cbl-b [2] was not above 300 nM; on Cbl-b [5], 100 to 300 nM.

With `Cc1cc(C(=O)Nc2cccc([C@@]3(Cc4nncn4C)CCOC3)c2)nc(C2CC2)n1` (single isomer, unassigned) [Compound 534b], the fold induction at 0.3 µM lay within 2.51 to 5 in the test with T-cell [1] and 1.01 to 1.3 with T-cell [6]. Also, the fold induction at 1 µM fell in the range of 2.51 to 5 in the test with T-cell [1], 0.101 to 0.15 in the test with T-cell [3], 0.801 to 1 with T-cell [4] and 1.01 to 1.3 with T-cell [6]. The IC50 was not above 100 nM on Cbl-b [2] and less than 100 nM on Cbl-b [5].

For the compound `Cn1cnnc1[C@H](F)[C@@](C)(F)c1cccc(N2Cc3c(cc(C4CC4)cc3C(F)(F)F)C2=O)c1` (stereo in doubt) [Compound 483, 6-cyclopropyl-2-[3-[(1S,2S)-1,2-difluoro-1-(4-methyl-4H-1,2,4-triazol-3-yl)propan-2-yl]phenyl]-4-(trifluoromethyl)-2,3-dihydro-1H-isoindol-1-one], the results for the fold induction at 0.3 µM in the test with T-cell [1] and with T-cell [6] were less than 1 and 1.01 to 1.3, respectively. In addition, the fold induction at 1 µM fell in the range of 1.01 to 2.5 in the test on T-cell [1], 0.051 to 0.1 with T-cell [3], 0.601 to 0.8 in the test on T-cell [4] and 1.01 to 1.3 in the test with T-cell [6]. The fold induction at 4 µM was 1.01 to 2.5 in the test with T-cell [1] and 1.01 to 1.3 in the test on T-cell [6]. Also, the IC50 on Cbl-b [2] was not above 300 nM; on Cbl-b [5], 100 to 300 nM. In addition, the fold induction at 8 µM in the test with T-cell [3] is 0.051 to 0.1; in the test with T-cell [4] it was 0.801 to 1.

As for `C[C@H](c1cc2c(c(C(F)(F)F)c1)CN(c1cccc(C3([C@@H](F)c4nncn4C)COC3)c1)C2=O)N1CCC2(CC2)C1` (stereo in doubt) [Compound 515, 6-[(1R)-1-{5-azaspiro[2.4]heptan-5-yl}ethyl]-2-(3-{3-[(R)-fluoro(4-methyl-1,2,4-triazol-3-yl)methyl]oxetan-3-yl}phenyl)-4-(trifluoromethyl)-3H-isoindol-1-one], the results for the fold induction at 0.3 µM in the test with T-cell [1] and in the test on T-cell [6] were more than 7.5 and more than 1.76, respectively. Besides, the fold induction at 1 µM was more than 7.5 in the test with T-cell [1], more than 0.201 with T-cell [3], more than 1 in the test with T-cell [4] and more than 1.76 with T-cell [6]. Also, the IC50 on Cbl-b [2] is not above 100 nM; at Cbl-b [5], less than 100 nM.

Take `C[C@H](Cc1nncn1C)c1cc(N[C@@H](C)CO)nc(N2Cc3c(cccc3C(F)(F)F)C2=O)c1` [Compound 365, 2-(6-((S)-1-hydroxypropan-2-ylamino)-4-((R)-1-(4-methyl-4H-1,2,4-triazol-3-yl)propan-2-yl)pyridin-2-yl)-4-(trifluoromethyl)isoindolin-1-one]: the fold induction at 0.3 µM in the test on T-cell [1] lay in the range of 1.01 to 2.5; in the test on T-cell [6], 1.01 to 1.3. Besides, the fold induction at 1 µM in the test on T-cell [1] lay within 1.01 to 2.5; with T-cell [3], 0.051 to 0.1; in the test with T-cell [4], 0.601 to 0.8; with T-cell [6], 1.01 to 1.3. The fold induction at 4 µM lay within 2.51 to 5 in the test on T-cell [1] and 1.01 to 1.3 with T-cell [6]. Further, the concentration for half-maximal inhibition (IC50) at Cbl-b [2] was not above 300 nM; on Cbl-b [5], 100 to 300 nM. Also, the fold induction at 8 µM in the test with T-cell [3] is 0.151 to 0.2; in the test on T-cell [4], more than 1.

In the case of `C[C@H](Cc1nncn1C)c1cccc(N2Cc3c(cc([C@@H]4CCCNC4)cc3C(F)(F)F)C2=O)c1` [Compound 382, 2-(3-((R)-1-(4-methyl-4H-1,2,4-triazol-3-yl)propan-2-yl)phenyl)-6-((S)-piperidin-3-yl)-4-(trifluoromethyl)isoindolin-1-one], the fold induction at 0.3 µM in the test with T-cell [1] is 2.51 to 5; with T-cell [6], 1.01 to 1.3. Also, the fold induction at 1 µM with T-cell [1] fell in the range of 5 to 7.5; in the test with T-cell [3], 0.101 to 0.15; in the test with T-cell [4], 0.601 to 0.8; in the test on T-cell [6], 1.31 to 1.5. Further, the fold induction at 4 µM with T-cell [1] was 5 to 7.5; in the test on T-cell [6], 1.51 to 1.75. Besides, the half-inhibitory concentration (IC50) is not above 300 nM on Cbl-b [2] and 100 to 300 nM on Cbl-b [5]. Moreover, the fold induction at 8 µM with T-cell [3] was more than 0.201; with T-cell [4], more than 1.

Regarding `CN1CC2CCC1CN2c1cc2c(c(C(F)(F)F)c1)CN(c1cccc(C3(Cc4nncn4C)COC3)c1)C2=O` (stereo not shown) [Compound 387, 2-(3-(3-((4-Methyl-4H-1,2,4-triazol-3-yl)methyl)oxetan-3-yl)phenyl)-6-(5-methyl-2,5-diazabicyclo[2.2.2]octan-2-yl)-4-(trifluoromethyl)isoindolin-1-one], the fold induction at 0.3 µM in the test on T-cell [1] was 2.51 to 5; in the test on T-cell [6], 1.01 to 1.3. Besides, the fold induction at 1 µM in the test on T-cell [1] was 5 to 7.5; with T-cell [3], more than 0.201; with T-cell [4] it was 0.801 to 1; in the test on T-cell [6] it was 1.31 to 1.5. The half-maximal inhibitory concentration (IC50) is not above 100 nM on Cbl-b [2] and less than 100 nM at Cbl-b [5].

Regarding `C[C@H]1CN(C)CCN1c1cc2c(c(C(F)(F)F)c1)CN(c1cccc(C3(Cc4nncn4C)COC3)c1)C2=O` [Compound 389, (S)-6-(2,4-Dimethylpiperazin-1-yl)-2-(3-(3-((4-methyl-4H-1,2,4-triazol-3-yl)methyl)oxetan-3-yl)phenyl)-4-(trifluoromethyl)isoindolin-1-one], the fold induction at 0.3 µM was in the range of 5 to 7.5 in the test with T-cell [1] and 1.01 to 1.3 in the test with T-cell [6]. Besides, the fold induction at 1 µM with T-cell [1] is more than 7.5; in the test on T-cell [3] it was more than 0.201; in the test with T-cell [4] it was more than 1; in the test with T-cell [6], 1.31 to 1.5. The 50% inhibitory concentration (IC50) on Cbl-b [2] was not above 100 nM; on Cbl-b [5], less than 100 nM.

In the case of `C[C@@H]1CN(C)CCN1c1cc2c(c(C(F)(F)F)c1)CN(c1cccc(C3(Cc4nncn4C)COC3)c1)C2=O` [Compound 390, (R)-6-(2,4-Dimethylpiperazin-1-yl)-2-(3-(3-((4-methyl-4H-1,2,4-triazol-3-yl)methyl)oxetan-3-yl)phenyl)-4-(trifluoromethyl)isoindolin-1-one], the results for the fold induction at 0.3 µM with T-cell [1] and with T-cell [6] were 2.51 to 5 and 1.01 to 1.3, respectively. The fold induction at 1 µM in the test on T-cell [1] is more than 7.5; in the test on T-cell [3], 0.151 to 0.2; with T-cell [4] it was more than 1; in the test on T-cell [6], 1.31 to 1.5. For the same compound, the 50% inhibitory concentration (IC50) at Cbl-b [2] was not above 100 nM; on Cbl-b [5] it was less than 100 nM.

In the case of `CN1CCN(c2cc3c(c(C(F)(F)F)c2)CN(c2cccc(C4(Cc5nncn5C)COC4)c2)C3=O)C(=O)C1` [Compound 391, 6-(4-Methyl-2-oxopiperazin-1-yl)-2-(3-(3-((4-methyl-4H-1,2,4-triazol-3-yl)methyl)oxetan-3-yl)phenyl)-4-(trifluoromethyl)isoindolin-1-one], the fold induction at 0.3 µM in the test on T-cell [1] fell in the range of 1.01 to 2.5; in the test with T-cell [6], 1.01 to 1.3. The fold induction at 1 µM in the test with T-cell [1] was 1.01 to 2.5; with T-cell [3] it was 0.051 to 0.1; with T-cell [4], 0.801 to 1; with T-cell [6], 1.01 to 1.3. For the same compound, the figures for the half-maximal inhibitory concentration (IC50) on Cbl-b [2] and on Cbl-b [5] were not above 100 nM and less than 100 nM, respectively.
